± gives the standard deviation of the averaged measurements.
How the values were obtained:
Assay in all cases: level (log10 ratio to DMSO vehicle control); higher = higher biomarker level / cell amount than vehicle control
[1] = compound: C=CC(=O)OCC(F)(F)C(F)(F)C(F)(F)COC(=O)C=C [1H,1H,5H,5H-Perfluoro-1,5-pentanediol diacrylate]; settings: 6700 nM; in DMSO
Description: (§1)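 BioMAP Diversity Plus panel of 12 human primary cell co-culture systems (3C, 4H, LPS, SAg, BT, BF4T, BE3C, CASM3C, HDF3CGF, KF3CT, MyoF, Mphg). Compounds were added 1 h before stimulation and left for 24 h (MyoF 48 h; BT 72 h for soluble read-outs or 6 d for IgG). Biomarkers were read by ELISA, cytotoxicity by SRB, PBMC viability and proliferation by Alamar Blue. Each well value was divided by the mean of 8 DMSO control wells on the same plate and log10 transformed; duplicate blinded samples were tested at 4 concentrations.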

[2] = compound: NC(=O)C(F)(F)C(F)(F)C(F)(F)C(F)F; settings: in DMSO
Description: as §1

[3] = compound: O=S(=O)(O)CCC(F)(F)C(F)(F)C(F)(F)C(F)(F)C(F)(F)C(F)(F)F [6:2 Fluorotelomer sulfonic acid]; settings: in DMSO
Description: as §1

[4] = compound: COC(=O)C(F)(F)C(F)(F)OC(F)(C(F)(F)F)C(F)(F)OC(F)=C(F)F [Methyl perfluoro(3-(1-ethenyloxypropan-2-yloxy)propanoate)]; settings: in DMSO
Description: as §1

[5] = compound: FC(F)(F)C(F)(F)C(F)(F)C(F)(F)C(F)(F)C(F)(F)C(F)(F)I [1-Iodopentadecafluoroheptane]; settings: in DMSO
Description: as §1

Nonafluoropentanamide = compound: NC(=O)C(F)(F)C(F)(F)C(F)(F)C(F)(F)F [Nonafluoropentanamide]; settings: in DMSO
Description: as §1

[6] = compound: O=C(O)C=CC(F)(C(F)(F)F)C(F)(F)F [3-(Perfluoroisopropyl)-2-propenoic acid]; settings: in DMSO
Description: as §1

Hexafluoroamylene glycol = compound: OCC(F)(F)C(F)(F)C(F)(F)CO [Hexafluoroamylene glycol]; settings: in DMSO
Description: as §1

Test System	level (log10) [1]	level (log10) ([2]; 6700 nM)	level (log10) ([2]; 20000 nM)	level (log10) ([2]; 60000 nM)	level (log10) ([3]; 6700 nM)	level (log10) ([3]; 20000 nM)	level (log10) ([3]; 60000 nM)	level (log10) ([4]; 6700 nM)	level (log10) ([4]; 20000 nM)	level (log10) ([5]; 6700 nM)	level (log10) ([5]; 20000 nM)	level (log10) (Nonafluoropentanamide; 6700 nM)	level (log10) (Nonafluoropentanamide; 20000 nM)	level (log10) (Nonafluoropentanamide; 60000 nM)	level (log10) ([6]; 6700 nM)	level (log10) ([6]; 20000 nM)	level (log10) ([6]; 60000 nM)	level (log10) (Hexafluoroamylene glycol; 6700 nM)	level (log10) (Hexafluoroamylene glycol; 20000 nM)	level (log10) (Hexafluoroamylene glycol; 60000 nM)
MyoF:Collagen III	-0.027 ± 0.013	0.003	0.0135 ± 0.00071	-0.0065 ± 0.035	-0.011 ± 0.013	-0.02 ± 0.017	-0.0055 ± 0.015	-0.0145 ± 0.013	-0.005 ± 0.0071	-0.0365 ± 0.005	-0.311 ± 0.093	-0.029 ± 0.021	-0.0335 ± 0.036	-0.0145 ± 0.0092	-0.0055 ± 0.022	0.003 ± 0.0071	0.0075 ± 0.005	-0.007 ± 0.017	-0.005 ± 0.018	0.005 ± 0.017
HDF3CGF:SRB	-0.458 ± 0.051	-0.007 ± 0.0042	0.0065 ± 0.016	-0.0035 ± 0.015	0.0055 ± 0.044	0.0255 ± 0.056	0.023 ± 0.085	0.0845 ± 0.0035	0.081 ± 0.0042	0.013 ± 0.021	-0.002 ± 0.016	0.024 ± 0.0042	0.022 ± 0.011	0.0245 ± 0.005	-0.014 ± 0.055	0.0205 ± 0.011	-0.0055 ± 0.022	0.0095 ± 0.052	0.0215 ± 0.06	0.02 ± 0.061
4H:CD106/VCAM-1	-0.032 ± 0.045	-0.0145 ± 0.005	-0.021 ± 0.0085	-0.007 ± 0.0057	-0.0415 ± 0.0078	-0.0245 ± 0.0021	-0.0625 ± 0.033	-0.01 ± 0.0028	-0.0385 ± 0.0035	-0.018 ± 0.0042	-0.0005 ± 0.0035	0.003 ± 0.0028	0.0095 ± 0.0064	0.008 ± 0.013	0.0275 ± 0.011	-0.0175 ± 0.019	0.016 ± 0.0014	0.0165 ± 0.029	0.0075 ± 0.013	0.033 ± 0.017
3C:CXCL8/IL-8	-0.0045 ± 0.018	0.0025 ± 0.016	-0.007 ± 0.0042	0.012 ± 0.0099	-0.034 ± 0.055	-0.0325 ± 0.053	0.06 ± 0.0085	0.0075 ± 0.046	0.0485 ± 0.061	0.004 ± 0.0057	0.0655 ± 0.021	-0.001 ± 0.016	-0.0145 ± 0.0092	0.0345 ± 0.04	-0.001 ± 0.038	-0.0275 ± 0.0092	0.028 ± 0.033	-0.0275 ± 0.069	-0.022 ± 0.042	0.012 ± 0.028
CASM3C:CD87/uPAR	-0.0095 ± 0.022	-0.0115 ± 0.015	-0.0035 ± 0.0078	-0.019 ± 0.017	0.003 ± 0.035	0.0145 ± 0.019	-0.0125 ± 0.012	-0.015 ± 0.027	-0.0165 ± 0.026	-0.019 ± 0.031	-0.0195 ± 0.018	-0.0215 ± 0.013	-0.023 ± 0.0014	0.0025 ± 0.00071	-0.006 ± 0.0057	-0.0135 ± 0.012	-0.015 ± 0.0042	0.003 ± 0.021	0.0125 ± 0.011	-0.0195 ± 0.035
HDF3CGF:CD54/ICAM-1	-0.9415 ± 0.0078	-0.0045 ± 0.0064	0.0045 ± 0.0035	0.001 ± 0.0071	-0.0085 ± 0.011	-0.007 ± 0.011	-0.029 ± 0.014	-0.0155 ± 0.0092	-0.029 ± 0.025	-0.0025 ± 0.0078	-0.0075 ± 0.0078	-0.0065 ± 0.011	-0.01 ± 0.0085	0 ± 0.0042	-0.0105 ± 0.005	-0.0055 ± 0.015	-0.024 ± 0.016	-0.0065 ± 0.016	0.0015 ± 0.012	0.009
KF3CT:CXCL9/MIG	-0.0275 ± 0.013	0.019 ± 0.018	0.006 ± 0.02	0.0145 ± 0.0078	0.0005 ± 0.013	-0.0025 ± 0.022	0.0005 ± 0.013	-0.013 ± 0.013	-0.0105 ± 0.025	0.0115 ± 0.022	0.012 ± 0.014	0.006 ± 0.0042	0.011 ± 0.0085	0.007 ± 0.0099	-0.0005 ± 0.012	0.0005 ± 0.011	0 ± 0.0028	0.0155 ± 0.00071	-0.003 ± 0.0014	0.014 ± 0.011
MyoF:Decorin	-0.0325 ± 0.0064	0.012 ± 0.0085	-0.0035 ± 0.03	-0.009 ± 0.0085	0.0105 ± 0.0035	0.0015 ± 0.00071	0.0435 ± 0.0021	0.0595 ± 0.022	0.07 ± 0.017	0.0365 ± 0.049	0.0215 ± 0.029	-0.0155 ± 0.0078	0.013 ± 0.0028	-0.0045 ± 0.00071	-0.0045 ± 0.021	0.004 ± 0.0014	0.0225 ± 0.029	0.001 ± 0.0042	-0.01 ± 0.0042	-0.015 ± 0.013
4H:SRB	-0.0105 ± 0.019	-0.0195 ± 0.0078	-0.0055 ± 0.005	-0.017 ± 0.021	-0.0015 ± 0.0021	0.0035 ± 0.018	-0.004 ± 0.027	-0.0015 ± 0.00071	0.007 ± 0.014	0.0015 ± 0.0092	0.0125 ± 0.005	-0.0055 ± 0.00071	-0.0055 ± 0.011	0.0055 ± 0.021	0.001 ± 0.018	-0.0045 ± 0.029	0.004 ± 0.021	-0.0055 ± 0.0035	-0.004 ± 0.0071	0.005 ± 0.02
KF3CT:MMP-9	-0.0525 ± 0.043	-0.0095 ± 0.013	0.002 ± 0.025	0.0125 ± 0.023	-0.0285 ± 0.019	0.0085 ± 0.018	0.026 ± 0.0028	-0.0375 ± 0.0021	-0.054 ± 0.0071	-0.05 ± 0.11	-0.0495 ± 0.056	-0.039 ± 0.027	-0.0195 ± 0.0021	-0.0245 ± 0.011	-0.0175 ± 0.016	0.006 ± 0.0071	0.018 ± 0.014	-0.0145 ± 0.005	-0.011 ± 0.025	-0.0155 ± 0.0035
3C:SRB	-0.0305 ± 0.011	-0.0075 ± 0.019	-0.013 ± 0.0014	-0.019 ± 0.023	0.001 ± 0.0099	0.002 ± 0.0057	-0.0045 ± 0.028	0.006 ± 0.0071	0.004 ± 0.0042	-0.001	0.001 ± 0.0014	-0.002 ± 0.0042	0.0005 ± 0.0035	-0.011	0.0035 ± 0.0078	0.0055 ± 0.019	0.0155 ± 0.015	-0.01 ± 0.0085	-0.0035 ± 0.021	0 ± 0.021
MyoF:MMP-1	0.206 ± 0.0028	-0.018 ± 0.038	-0.034 ± 0.02	0.014 ± 0.028	-0.018 ± 0.021	-0.058 ± 0.0042	-0.0145 ± 0.047	0.021 ± 0.035	0.111 ± 0.084	0.145 ± 0.045	0.547 ± 0.018	-0.035 ± 0.037	-0.02 ± 0.052	-0.0055 ± 0.015	-0.0205 ± 0.021	-0.031 ± 0.0014	0.006 ± 0.068	-0.0245 ± 0.011	-0.0525 ± 0.019	-0.0115 ± 0.0092
